Literature values as cited in patent US20100292280A1, “ANTI-PYRETIC VASODILATORS” (priority 2007, published 2010).

Columns and labels:
[1] = system: forearm and dorsum of the foot skin of healthy subjects and diabetic neuropathic patients
healthy adults = conditions: ingestion of 5 mg niacin per Kg body weight
skin = conditions: doses of niacin over 50 mg

In the case of `COC(=O)c1cccnc1` [methyl nicotinate], the “vasodilatory response compared to the acetylcholine and sodium nitroprusside responses” value ([1]; control group, foot) is listed as “higher”, the “vasodilatory response, comparison between agents” value ([1]; control group, forearm) is listed as “similar” and the “maximal vasodilatory response, comparison between agents” value ([1]; diabetic patients, forearm and foot level) is listed as “similar”. For the same compound, the “time after application at which vasodilation was present” value ([1]; topical 1% methyl nicotinate) was 5 min, the “time of decline of vasodilation to pre-application levels” value ([1]; topical 1% methyl nicotinate) was 120 min and the “time of peak vasodilation” value ([1]; topical 1% methyl nicotinate) was 15 to 30 min.
In the case of `O=C(O)c1cccnc1` [niacin, nicotinic acid], the “duration of the decrease of core body temperature” value (healthy adults) is listed as “about 70 minutes”, the “time at which the sharp decrease in body temperature begins, after oral ingestion” value (healthy adults) is listed as “about 20 minutes” and the “time of the peak of continuous temperature reduction, after ingestion” value (healthy adults) is listed as “about 50 minutes”. For the same compound, the “undesired side effect reported by a significant portion of the subjects” value (healthy adults) was “sever hypotension”, the “decrease of core body temperature” value (healthy adults; on average) was 0.44 °C and the “duration of flushing of the skin” value (skin) was “about 60 minutes”.
